13 compounds from US6472418B1, “Non-peptide NK1 receptors antagonists” (Warner-Lambert Company, priority 1998, dated 2002) can be followed below.

Some results are limits rather than exact numbers.

T1 sequence (P25103 whole entry): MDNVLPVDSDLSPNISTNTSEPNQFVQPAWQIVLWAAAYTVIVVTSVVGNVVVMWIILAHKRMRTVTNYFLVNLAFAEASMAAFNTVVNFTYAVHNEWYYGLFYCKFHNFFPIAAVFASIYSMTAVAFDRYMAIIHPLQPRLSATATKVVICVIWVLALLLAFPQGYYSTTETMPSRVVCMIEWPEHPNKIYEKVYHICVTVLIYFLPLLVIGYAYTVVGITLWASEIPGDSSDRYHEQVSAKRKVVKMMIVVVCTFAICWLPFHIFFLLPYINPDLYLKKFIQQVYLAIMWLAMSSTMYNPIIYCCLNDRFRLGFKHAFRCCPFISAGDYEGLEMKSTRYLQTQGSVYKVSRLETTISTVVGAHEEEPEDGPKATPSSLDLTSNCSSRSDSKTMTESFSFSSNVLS

This assay addresses T1, Human NK1 Receptor (Homo sapiens, UniProt P25103).
T1 construct: endogenous in cells; host or cells: Human lymphoma IM9 cells (whole cells)
The assay can be described thus: In Vitro Human NK1 Receptor Binding Assay ([125I]Bolton-Hunter substance P displacement, IM9 cells). The conditions noted are these: Table 4; [125I]Bolton-Hunter substance P displacement, human IM9 cells; read-out: IC50 (nM) hNK1. The procedure, abridged:
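Test compounds competed with 0.05-0.1 nM [125I]Bolton-Hunter substance P for binding to intact IM9 cells over 50 min at 21° C, pH 7.4 buffer with MnCl2 and peptidase inhibitors. […] [Sar9, Met(O2)11] substance P gave non-specific binding. Bound counts were measured after filtration and fitted iteratively.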
Regarding `CC(NC(=O)C(C)(Cc1c[nH]c2ccccc12)NCc1ccccc1OCc1ccccn1)c1ccccc1` (stereo not shown) [compound 323, 3-(1H-Indol-3-yl)-2-methyl-N-(1-phenyl-ethyl)-2-[2-(pyridin-2-ylmethoxy)-benzylamino]-propionamide], the IC50 was 3180 nM. Take `CC(NC(=O)C(C)(Cc1c[nH]c2ccccc12)NCc1ccccc1OCc1cccnc1)c1ccccc1` (stereo not shown) [compound 324, 3-(1H-Indol-3-yl)-2-methyl-N-(1-phenyl-ethyl)-2-[2-(pyridin-3-ylmethoxy)-benzylamino]-propionamide]: the IC50 worked out at 2970 nM.

Regarding `CC(NC(=O)C(C)(Cc1c[nH]c2ccccc12)NCc1ccc(C=Cc2ccccc2)o1)c1ccccc1` (stereo not shown) [compound 325, 3-(1H-Indol-3-yl)-2-methyl-N-(1-phenyl-ethyl)-2-[(5-styryl-furan-2-ylmethyl)-amino]-propionamide], the IC50 was determined as 72 nM. Then `CNS(=O)(=O)c1cc(CNC(C)(Cc2c[nH]c3ccccc23)C(=O)NC(C)c2ccccc2)ccc1Cl` (stereo not shown) [compound 326, 2-(4-Chloro-3-methylsulfamoyl-benzylamino)-3-(1H-indo1-3-yl)-2-methyl-N-(1-phenyl-ethyl)-propionamide], with 4830 nM; and `CC(NC(=O)C(C)(Cc1c[nH]c2ccccc12)NCc1ccc(OCCCC(C)(C)C(=O)O)cc1)c1ccccc1` (stereo not shown) [compound 327, 5-(4-{[2-(1H-Indol-3-yl)-1-methyl-1-(1-phenyl-ethylcarbamoyl)-ethylamino]-methyl}-phenoxy)-2,2-dimethyl-pentanoic acid], with over 10000 nM; and `CC(C)C=CCC1=CCC(CNC(C)(Cc2c[nH]c3ccccc23)C(=O)NC(C)c2ccccc2)CC1` (stereo not shown) [compound 328, 3-(1H-Indol-3-yl)-2-methyl-2-{[4-(4-methyl-pent-2-enyl)-cyclohex-3-enylmethyl]-amino}-N-(1-phenyl-ethyl)-propionamide], with over 10000 nM. Then `CCOC(=O)Nc1ccccc1CNC(C)(Cc1c[nH]c2ccccc12)C(=O)NC(C)c1ccccc1` (stereo not shown) [compound 329, (2-{[2-(1H-Indol-3-yl)-1-methyl-1-(1-phenyl-ethylcarbamoyl)-ethylamino]-methyl}-phenyl)-carbamic acid ethyl ester], with 4190 nM. For `CNS(=O)(=O)c1cc(Cl)ccc1CNC(C)(Cc1c[nH]c2ccccc12)C(=O)NC(C)c1ccccc1` (stereo not shown) [compound 330, 2-(4-Chloro-2-methylsulfamoyl-benzylamino)-3-(1H-indol-3-yl)-2-methyl-N-(1-phenyl-ethyl)-propionamide], the IC50 came out at 1100 nM. Then `CC(NC(=O)C(C)(Cc1c[nH]c2ccccc12)NCc1ccc(OCCN(C)C)cc1)c1ccccc1` (stereo not shown) [compound 331, 2-[4-(2-Dimethylamino-ethoxy)-benzylamino]-3-(1H-indol-3-yl)-2-methyl-N-(1-phenyl-ethyl)-propionamide], with over 10000 nM. With `CC(NC(=O)C(C)(Cc1c[nH]c2ccccc12)NCC(Cc1ccccc1)c1ccccc1)c1ccccc1` (stereo not shown) [compound 332, 2-(2,3-Diphenyl-propylamino)-3-(1H-indol-3-yl)-2-methyl-N-(1-phenyl-ethyl)-propionamide], the IC50 stood at 4940 nM. Take `CC(NC(=O)C(C)(Cc1c[nH]c2ccccc12)NCc1cc2ccccc2o1)c1ccccc1` (stereo not shown) [compound 343, 2-[(Benzofuran-2-ylmethyl)-amino]-3-(1H-indol-3-yl)-2-methyl-N-(1-phenyl-ethyl)-propionamide]: the IC50 came to 13 nM. For `CC(NC(=O)C(C)(Cc1c[nH]c2ccccc12)NCc1cccc(OCc2ccccc2)c1)c1ccccc1` (stereo not shown) [compound 344, 2-(3-Benzyloxy-benzylamino)-3-(1H-indol-3-yl)-2-methyl-N-(1-phenyl-ethyl)-propionamide], the IC50 came to 185 nM.

`CSc1ccc(CNC(C)(Cc2c[nH]c3ccccc23)C(=O)NC(C)c2ccccc2)cc1` (stereo not shown) [compound 345, 3-(1H-Indol-3-yl)-2-methyl-2-(4-methylsulfanyl-benzylamino)-N-(1-phenyl-ethyl)-propionamide]: the 50% inhibitory concentration (IC50) came out at 609 nM.

The IC50 is the concentration that inhibits the measured activity by half.
